The values below come from patent US20250129103A1, “METHODS FOR TREATMENT OF CANCER” (Frontier Medicines Corporation, priority 2022, published 2025).

Values after ≈ are worked out from the molar mass of the structure shown.

A short description of data set [1]: Determination of kinetic solubility (pH 7.4). It is filed as physicochemical. Conditions: phosphate buffer, pH 7.4, aqueous buffer, kinetic from dmso stock, 50 mM phosphate buffer pH 7.4, read-out: Ksol, pH 7.4. Summed up:
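Sample mixed with 50 mM phosphate buffer, pH 7.4, vortexed, then shaken 2 h at room temperature and centrifuged. Filtrate analysed by HPLC-UV and LC-MS/MS, with solubility read from peak areas against a standard calibration curve.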

Data set [2] in a line: Determination of logD (1-octanol / phosphate buffer pH 7.4). It is filed as physicochemical. The settings on record: 1-octanol/phosphate buffer, pH 7.4, pH 7.4, 1-octanol/phosphate buffer; read-out: Log D, pH 7.4. The method, boiled down:
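Shake-flask partition between 1-octanol and 100 mM phosphate buffer pH 7.4, each phase presaturated with the other overnight. Tubes shaken 1 h at 800 rpm, room temperature, then centrifuged. Both phases quantified by LCMS and logD calculated from the ratio.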

Data set [3] addresses KRAS G12C (GMPPNP-loaded) and cRAF (Ras-binding domain) interaction (Homo sapiens (Human), UniProt P01116, C118S/C51S/C80L/G12C). As to the kind of experiment: Inhibition of KRAS G12C and cRAF binding (AlphaScreen). Conditions: KRAS G12C loaded with GMPPNP, cRaf RBD, 2 hours preincubation; read-out: Raf-1 RBD K-Ras IC50. Summed up:
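GMPPNP-loaded KRAS G12C in 25 mM Hepes pH 7.4, 150 mM NaCl, 5 mM MgCl2, 0.01% Triton X-100, 10 μM GMPPNP, 2% DMSO, preincubated with compound 2 h at room temperature. cRAF RBD plus AlphaScreen beads then added for 60-90 min; signal read at 570 nm.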
(Bead proximity is the source of the signal in Alpha formats.)

Data set [4] deals with KRAS G12C (GMPPNP-loaded) and PI3Ka (Ras-binding domain) interaction (Homo sapiens (Human), UniProt P01116, C118S/C51S/C80L/G12C). The data set is described as follows: Inhibition of KRAS G12C and PI3Ka binding (AlphaScreen). The settings on record: KRAS G12C loaded with GMPPNP, PI3Ka RBD, 2 hours preincubation; read-out: PI3K RBD K-Ras IC50. Summed up:
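Biotin-AviTag Cys-light KRAS G12C (aa 1-169, C51S/C80L/C118S), GMPPNP-loaded, 1.5 nM, preincubated 2 h with compound, then His-tagged PI3Ka RBD (aa 157-300, 100 nM) plus AlphaScreen beads added for 60-90 min, RT. Buffer Hepes pH 7.4, 10 μM GMPPNP, 2% DMSO; 10-point 1:3 from 50 μM; 4-parameter IC50.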

Chain of KRAS G12C (GMPPNP-loaded) and cRAF (Ras-binding domain) interaction (P01116 other isoform, or with tags, fused parts or gaps G12C/C51S/C80L/C118S): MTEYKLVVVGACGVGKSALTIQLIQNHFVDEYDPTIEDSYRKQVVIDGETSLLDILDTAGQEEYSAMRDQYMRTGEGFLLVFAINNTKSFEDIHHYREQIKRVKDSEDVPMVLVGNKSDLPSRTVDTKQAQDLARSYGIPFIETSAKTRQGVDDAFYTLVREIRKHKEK
Chain of KRAS G12C (GMPPNP-loaded) and PI3Ka (Ras-binding domain) interaction (P01116 other isoform, or with tags, fused parts or gaps G12C/C51S/C80L/C118S): as above

What is called IC50 is the concentration that inhibits the measured activity by half. On to `CC(C)c1noc(/C=C/C(=O)N2CCN(c3nc(OC[C@]45CCCN4C[C@H](F)C5)nc4c3CCN(c3cccc5ccc(F)c(Cl)c35)C4)C[C@@H]2CC#N)n1` [Compound 131], for which, in data set [1], the solubility kinetic at 2 h is 0.01 µg/mL (≈ 0.0132 µM). Besides, the logD in data set [2] is 4.96. The IC50 in data set [3] and in data set [4] was 10 to 100 nM in each case.

Regarding `Cc1cc(N)nc([C@@H]2Cc3nc(OC[C@@]45CCCN4C[C@H](F)C5)nc(N4CCN(C(=O)/C=C/c5nc([C@H]6C[C@@H]6F)no5)[C@@H](CC#N)C4)c3C[C@H]2C)c1C(F)(F)F` [Compound 136], the solubility kinetic at 2 h in data set [1] amounted to 0.02 µg/mL (≈ 0.0255 µM). Also, the logD in data set [2] worked out at 4.37. The half-inhibitory concentration (IC50) in data set [3] and in data set [4] was less than 10 nM each time.

Turning to `Cc1nsc(/C=C/C(=O)N2CCN(c3nc(OC[C@@]45CCCN4C[C@H](F)C5)nc4c(F)c(-c5cccc6cccc(Cl)c56)ncc34)C[C@@H]2CC#N)n1` [Compound 138], the solubility kinetic at 2 h in data set [1] worked out at 0.01 µg/mL (≈ 0.0135 µM). Further, in data set [2], the logD came out at 3.9. Moreover, the IC50 in data set [3] and in data set [4] was less than 10 nM throughout.

`Cc1nccc(/C=C/C(=O)N2CCN(c3nc(OCC45CCCN4CCC5)nc4c(F)c(-c5cccc6cccc(Cl)c56)ncc34)C[C@@H]2CC#N)n1` [Compound 139]: the solubility kinetic at 2 h in data set [1] was found to be 107 µg/mL (≈ 150 µM). Moreover, the logD in data set [2] worked out at 1.93. In addition, the IC50 in data set [3] is 10 to 100 nM; in data set [4] it was less than 10 nM.

Consider `Cc1nccc(/C=C/C(=O)N2CCN(c3nc(OC[C@@]45CCCN4C[C@H](F)C5)nc4c(F)c(-c5cccc6cccc(Cl)c56)ncc34)C[C@@H]2CC#N)n1` [Compound 140], for which, in data set [1], the solubility kinetic at 2 h was found to be 1.86 µg/mL (≈ 2.53 µM). The logD in data set [2] worked out at 3.45. For the same compound, the IC50 in data set [3] and in data set [4] was less than 10 nM throughout.

In the case of `Cc1nsc(/C=C/C(=O)N2CCN(c3nc(OCC45CCCN4CCC5)nc4c3CCN(c3cccc5ccc(F)c(Cl)c35)C4)C[C@@H]2CC#N)n1` [Compound 141], in data set [1], the solubility kinetic at 2 h was found to be 84 µg/mL (≈ 115 µM). Moreover, the logD in data set [2] stood at 3.43. Also, the IC50 in data set [3] and in data set [4] was less than 10 nM in each case.

As for `Cc1nsc(/C=C/C(=O)N2CCN(c3nc(OCC45CCCN4CCC5)nc4c(F)c(-c5cccc6cccc(Cl)c56)ncc34)C[C@@H]2CC#N)n1` [Compound 143], in data set [1], the solubility kinetic at 2 h amounted to 87.8 µg/mL (≈ 121 µM). Also, the logD in data set [2] is 2.39. Moreover, the concentration for half-maximal inhibition (IC50) in data set [3] and in data set [4] was less than 10 nM in each case.

As to `Cc1nccc(/C=C/C(=O)N2CCN(c3nc(OC[C@@]45CCCN4C[C@H](F)C5)nc4c(F)c(-c5cccc6ccc(F)c(Cl)c56)ncc34)C[C@@H]2CC#N)n1` [Compound 147], the solubility kinetic at 2 h in data set [1] turned out to be 4.93 µg/mL (≈ 6.54 µM). In addition, the logD in data set [2] turned out to be 3.64. Also, the half-maximal inhibitory concentration (IC50) in data set [3] and in data set [4] was less than 10 nM each time.

Turning to `Cc1nccc(/C=C/C(=O)N2CCN(c3nc(OC[C@@]45CCCN4C[C@H](F)C5)nc4c(F)c(-c5nc(N)cc6cccc(Cl)c56)ncc34)C[C@@H]2CC#N)n1` [Compound 148], the solubility kinetic at 2 h in data set [1] was determined as 83.8 µg/mL (≈ 111 µM). For the same compound, the logD in data set [2] is 2.25. For the same compound, the IC50 in data set [3] and in data set [4] was less than 10 nM throughout.

Regarding `CC(C)c1nccc(/C=C/C(=O)N2CCN(c3nc(OC[C@@]45CCCN4C[C@H](F)C5)nc4c(F)c(-c5cccc6cccc(Cl)c56)ncc34)C[C@@H]2CC#N)n1` [Compound 151], the solubility kinetic at 2 h in data set [1] was 0.41 µg/mL (≈ 0.536 µM). Moreover, in data set [2], the logD was determined as 3.71. The half-maximal inhibitory concentration (IC50) in data set [3] and in data set [4] was less than 10 nM in each case.

Regarding `N#CC[C@H]1CN(c2nc(OC[C@@]34CCCN3C[C@H](F)C4)nc3c(F)c(-c4cccc5cccc(Cl)c45)ncc23)CCN1C(=O)/C=C/c1ccnc(C2CC2)n1` [Compound 154], the solubility kinetic at 2 h in data set [1] came out at 0.01 µg/mL (≈ 0.0131 µM). Besides, the logD in data set [2] was 4.36. The IC50 in data set [3] and in data set [4] was less than 10 nM each time.

In the case of `Cc1nsc(/C=C/C(=O)N2CCN(c3nc(OCC45CCCN4CCC5)nc4c(F)c(-c5cccc6ccc(F)c(Cl)c56)ncc34)C[C@@H]2CC#N)n1` [Compound 156], in data set [1], the solubility kinetic at 2 h was determined as 84.5 µg/mL (≈ 114 µM). For the same compound, the logD in data set [2] turned out to be 2.78. Further, the half-maximal inhibitory concentration (IC50) in data set [3] and in data set [4] was less than 10 nM throughout.
